Results reported in PubChem BioAssay AID1963984 (Molecular Pharmacology Branch, DTP, NCI, 2024).

System: 233499-124-R-J3-PDC spheroids with HUVEC/MSC, viability
Assay: Anticancer human tumor 233499-124-R-J3-PDC patient-derived colon adenocarcinoma cell line growth inhibition [PI3K]
Conditions: for IC50: curve of first compound; for viability, T/C: stronger effect = lower value
In short: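 Complex 3D spheroids (cancer cells + endothelial HUVEC + mesenchymal stem cells); drug pairs of targeted agent x inavolisib/alpelisib/duvelisib/copanlisib; half-log series from ~Cmax, max 10 microM if Cmax unknown; endpoint viability.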

[1] = second compound 0.0316 µM, first compound 0.0316 µM
[2] = second compound 0.0316 µM, first compound 0.1 µM
[3] = second compound 0.0316 µM, first compound 0.316 µM
[4] = second compound 0.0316 µM, first compound 1 µM
[5] = second compound 0.0316 µM, first compound 3.16 µM
[6] = second compound 0.0316 µM, first compound 10 µM
[7] = second compound 0.1 µM, first compound 0.0316 µM
[8] = second compound 0.1 µM, first compound 0.1 µM
[9] = second compound 0.1 µM, first compound 0.316 µM
[10] = second compound 0.1 µM, first compound 1 µM
[11] = second compound 0.1 µM, first compound 3.16 µM
[12] = second compound 0.1 µM, first compound 10 µM
[13] = second compound 0.316 µM, first compound 0.0316 µM
[14] = second compound 0.316 µM, first compound 0.1 µM
[15] = second compound 0.316 µM, first compound 0.316 µM
[16] = second compound 0.316 µM, first compound 1 µM
[17] = second compound 0.316 µM, first compound 3.16 µM
[18] = second compound 0.316 µM, first compound 10 µM
[19] = second compound 1 µM, first compound 0.0316 µM
[20] = second compound 1 µM, first compound 0.1 µM
[21] = second compound 1 µM, first compound 0.316 µM
[22] = second compound 1 µM, first compound 1 µM
[23] = second compound 1 µM, first compound 3.16 µM
[24] = second compound 1 µM, first compound 10 µM
[25] = second compound 3.16 µM, first compound 0.0316 µM
[26] = second compound 3.16 µM, first compound 0.1 µM
[27] = second compound 3.16 µM, first compound 0.316 µM
[28] = second compound 3.16 µM, first compound 1 µM
[29] = second compound 3.16 µM, first compound 3.16 µM
[30] = second compound 3.16 µM, first compound 10 µM
[31] = second compound 10 µM, first compound 0.0316 µM
[32] = second compound 10 µM, first compound 0.1 µM
[33] = second compound 10 µM, first compound 0.316 µM
[34] = second compound 10 µM, first compound 1 µM
[35] = second compound 10 µM, first compound 3.16 µM
[36] = second compound 10 µM, first compound 10 µM
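Further: spheroids exposed to agents for seven days before readout.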
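Wherever viability, T/C is given: percent viability relative to DMSO vehicle control taken as 100%.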

C#Cc1c(F)ccc2cc(O)cc(-c3ncc4c(N5CC6CCC(C5)N6)nc(OCC56CCCN5CC(F)C6)nc4c3F)c12 (centres undefined) + Cc1nc(NC(=O)N2CCCC2C(N)=O)sc1-c1ccnc(C(C)(C)C(F)(F)F)c1 was tested, and the IC50 (second compound 0.0316 µM) was > 10 µM, the IC50 (second compound 0.1 µM) was > 10 µM and the IC50 (second compound 0.316 µM) was > 10 µM. The IC50 (second compound 1 µM) was 5.78 µM, the IC50 (second compound 3.16 µM) was 0.807 µM and the IC50 (second compound 10 µM) was < 0.0316 µM. It also gave a viability, T/C [1] of 91.5%, a viability, T/C [2] of 98.2% and a viability, T/C [3] of 79.3%. It also gave a viability, T/C [4] of 89.2%, a viability, T/C [5] of 81.2% and a viability, T/C [6] of 84.5%. It also gave a viability, T/C [7] of 108%, a viability, T/C [8] of 107% and a viability, T/C [9] of 91.4%. The viability, T/C [10] was 77.7%, the viability, T/C [11] was 81% and the viability, T/C [12] was 104%. It also gave a viability, T/C [13] of 88.7%, a viability, T/C [14] of 83% and a viability, T/C [15] of 83%. It also gave a viability, T/C [16] of 77.1%, a viability, T/C [17] of 50.9% and a viability, T/C [18] of 82.4%. It also gave a viability, T/C [19] of 77.1%, a viability, T/C [20] of 54.9% and a viability, T/C [21] of 83.4%. It also gave a viability, T/C [22] of 64.4%, a viability, T/C [23] of 64.3% and a viability, T/C [24] of 37.7%. For the same compound, the viability, T/C [25] was 65.3%, the viability, T/C [26] was 72% and the viability, T/C [27] was 67%. For the same compound, the viability, T/C [28] was 43.6%, the viability, T/C [29] was 33.6% and the viability, T/C [30] was 61.2%. For the same compound, the viability, T/C [31] was 30.5%, the viability, T/C [32] was 39% and the viability, T/C [33] was 16.3%. For the same compound, the viability, T/C [34] was 26.1%, the viability, T/C [35] was 12.4% and the viability, T/C [36] was 4.04%.
With C=CC(=O)N1CCN(c2nc(=O)n(-c3c(C)ccnc3C(C)C)c3nc(-c4c(O)cccc4F)c(F)cc23)C(C)C1 (centres undefined) + Cc1nc(NC(=O)N2CCCC2C(N)=O)sc1-c1ccnc(C(C)(C)C(F)(F)F)c1 the IC50 (second compound 0.0316 µM) was > 10 µM, the IC50 (second compound 0.1 µM) was > 10 µM and the IC50 (second compound 0.316 µM) was > 10 µM. For the same compound, the IC50 (second compound 1 µM) was > 10 µM, the IC50 (second compound 3.16 µM) was < 0.0316 µM and the IC50 (second compound 10 µM) was < 0.0316 µM. It also gave a viability, T/C [1] of 89.3%, a viability, T/C [2] of 94.8% and a viability, T/C [3] of 99.3%. The viability, T/C [4] was 106%, the viability, T/C [5] was 100% and the viability, T/C [6] was 85%. The viability, T/C [7] was 84.8%, the viability, T/C [8] was 96.3% and the viability, T/C [9] was 93%. It also gave a viability, T/C [10] of 81.4%, a viability, T/C [11] of 79.5% and a viability, T/C [12] of 80.2%. For the same compound, the viability, T/C [13] was 95.2%, the viability, T/C [14] was 96.7% and the viability, T/C [15] was 70.1%. It also gave a viability, T/C [16] of 82.2%, a viability, T/C [17] of 67.5% and a viability, T/C [18] of 92.6%. For the same compound, the viability, T/C [19] was 71.7%, the viability, T/C [20] was 92.2% and the viability, T/C [21] was 79.4%. For the same compound, the viability, T/C [22] was 77.3%, the viability, T/C [23] was 80.9% and the viability, T/C [24] was 79.8%. It also gave a viability, T/C [25] of 39.4%, a viability, T/C [26] of 51.1% and a viability, T/C [27] of 71.8%. The viability, T/C [28] was 34.1%, the viability, T/C [29] was 60.9% and the viability, T/C [30] was 67.9%. The viability, T/C [31] was 24%, the viability, T/C [32] was 41.6% and the viability, T/C [33] was 24.9%. It also gave a viability, T/C [34] of 41.8%, a viability, T/C [35] of 37.6% and a viability, T/C [36] of 27.2%.
